Assay results: patent US20240425464A1, “Substituted Monohydrazides as Potent Antifungal Agents” (University of Kentucky Research Foundation, priority 2023, published 2024)
Values after ≈ are worked out from the molar mass of the structure shown. Like-named read-outs stand apart in the source and are kept apart here.

How the values were obtained:
Experiment in all cases: MIC determination by in vitro antifungal assay
Format in all cases: cell-based
[1] = test system: Aspergillus flavus ATCC MYA-3631 (O); conditions: strain O = A. flavus ATCC MYA-3631
In short: (§1)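 Fungi are exposed to compounds (0.06-31.3 μg/mL, double dilution) in RPMI 1640 adjusted to pH 7.0 with MOPS. Incubation runs 48 h at 35° C, based on CLSI M27-A3/M38-A2. Yeast suspensions start at ˜1×10^6 CFU/mL and are diluted 1:100.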

[2] = test system: Aspergillus nidulans ATCC 38163 (P)
In short: as §1

[3] = test system: Cryptococcus neoformans ATCC MYA-895 (M); conditions: strain M = C. neoformans ATCC MYA-895
In short: (§2)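 Overnight YPD cultures of yeast were adjusted in RPMI 1640 to OD600 0.12 (˜1×10^6 CFU/mL) and diluted 1:100. The cells were added to serially double-diluted compound (0.06-31.3 μg/mL) in MOPS-buffered RPMI 1640 at pH 7.0. Plates were then incubated at 35° C for 48 h.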

[4] = test system: Aspergillus terreus ATCC MYA-3633 (N); conditions: strain N = A. terreus ATCC MYA-3633
In short: as §1

[5] = test system: Candida parapsilosis ATCC 22019 (J)
In short: as §2

[6] = test system: Candida glabrata ATCC 2001 (H); conditions: ATCC 2001 in text
In short: as §2

[7] = test system: Candida krusei ATCC 6258 (I)
In short: as §2

[8] = Aspergillus flavus, read-out: MIC
[9] = Aspergillus nidulans, ATCC38163, strain P = A. nidulans ATCC 38163, read-out: MIC
[10] = Cryptococcus neoformans, read-out: MIC
[11] = Aspergillus terreus, read-out: MIC
[12] = Lodderomyces parapsilosis, ATCC22019, strain J = C. parapsilosis ATCC 22019, read-out: MIC
[13] = Nakaseomyces glabratus, ATCC 2001 / ATCC 2004, strain H = C. glabrata ATCC 2004 (footnote), read-out: MIC
[14] = Pichia kudriavzevii, ATCC6258, strain I = C. krusei ATCC 6258, read-out: MIC
[15] = strain P = A. nidulans ATCC 38163
[16] = strain J = C. parapsilosis ATCC 22019
[17] = strain H = C. glabrata ATCC 2004 (footnote)

Compound	MIC [1, 8] [mg/L]	MIC [2, 9] [mg/L]	MIC [3, 10] [mg/L]	MIC [4, 11] [mg/L]	MIC [5, 12] [mg/L]	MIC [6, 13] [mg/L]	MIC [7, 14] [mg/L]	MIC [1] [μg/mL^−1]	MIC [2, 15] [μg/mL^−1]	MIC [3] [μg/mL^−1]	MIC [4] [μg/mL^−1]	MIC [5, 16] [μg/mL^−1]	MIC [6, 17] [μg/mL^−1]	MIC ([7]; strain I = C. krusei ATCC 6258) [μg/mL^−1]
O=C(NNc1ccc(F)cc1)c1cccc(Br)n1 [Compound 6d]	15.6 (≈ 50.3 µM)	0.98 (≈ 3.16 µM)	0.98 (≈ 3.16 µM)	3.9 (≈ 12.6 µM)	7.8 (≈ 25.2 µM)	> 31.3	0.49 (≈ 1.58 µM)							
COc1ccc(NNC(=O)c2cccc(Br)n2)cc1 [Compound 6f]	> 31.3	3.9 (≈ 12.1 µM)	1.95 (≈ 6.05 µM)	7.8 (≈ 24.2 µM)	3.9 (≈ 12.1 µM)	1.95 (≈ 6.05 µM)	0.98 (≈ 3.04 µM)							
O=C(NNc1cccc(F)c1)c1ncc(F)cc1F [Compound 7a]								>31.3	0.98	≤0.06	3.9	1.95	31.3	0.24
COc1cccc(NNC(=O)c2ncc(F)cc2F)c1 [Compound 7c]	> 31.3	15.6 (≈ 55.9 µM)	15.6 (≈ 55.9 µM)	31.3 (≈ 112 µM)	15.6 (≈ 55.9 µM)	15.6 (≈ 55.9 µM)	15.6 (≈ 55.9 µM)							
O=C(NNc1ccc(F)cc1)c1ncc(F)cc1F [Compound 7d]	7.8 (≈ 29.2 µM)	0.49 (≈ 1.83 µM)	0.49 (≈ 1.83 µM)	3.9 (≈ 14.6 µM)	3.9 (≈ 14.6 µM)	15.6 (≈ 58.4 µM)	0.49 (≈ 1.83 µM)							
O=C(NNc1ccc(Cl)cc1)c1ncc(F)cc1F [Compound 7e]								>31.3	7.8	1.95	>31.3	15.6	3.9	1.95
COc1ccc(NNC(=O)c2ncc(F)cc2F)cc1 [Compound 7f]	> 31.3	1.95 (≈ 6.98 µM)	1.95 (≈ 6.98 µM)	31.3 (≈ 112 µM)	7.8 (≈ 27.9 µM)	7.8 (≈ 27.9 µM)	0.98 (≈ 3.51 µM)							
O=C(NNc1ccc(F)cc1F)c1ncc(F)cc1F [Compound 7g]	> 31.3	0.98 (≈ 3.44 µM)	0.98 (≈ 3.44 µM)	7.8 (≈ 27.3 µM)	31.3 (≈ 110 µM)	> 31.3	0.98 (≈ 3.44 µM)							
O=C(NNc1cccc(F)c1)c1nc(F)ccc1F [Compound 8a]								>31.3	1.95	≤0.06	3.9	7.8	15.6	0.49
COc1cccc(NNC(=O)c2nc(F)ccc2F)c1 [Compound 8c]	> 31.3	7.8 (≈ 27.9 µM)	7.8 (≈ 27.9 µM)	31.3 (≈ 112 µM)	7.8 (≈ 27.9 µM)	15.6 (≈ 55.9 µM)	15.6 (≈ 55.9 µM)							
O=C(NNc1ccc(F)cc1)c1nc(F)ccc1F [Compound 8d]	7.8 (≈ 29.2 µM)	0.49 (≈ 1.83 µM)	0.49 (≈ 1.83 µM)	1.95 (≈ 7.3 µM)	7.8 (≈ 29.2 µM)	15.6 (≈ 58.4 µM)	0.24 (≈ 0.898 µM)							
O=C(NNc1ccc(Cl)cc1)c1nc(F)ccc1F [Compound 8e]								>31.3	7.8	1.95	>31.3	15.6	3.9	3.9
COc1ccc(NNC(=O)c2nc(F)ccc2F)cc1 [Compound 8f]	> 31.3	1.95 (≈ 6.98 µM)	0.98 (≈ 3.51 µM)	31.3 (≈ 112 µM)	7.8 (≈ 27.9 µM)	7.8 (≈ 27.9 µM)	0.98 (≈ 3.51 µM)							
O=C(NNc1ccc(F)cc1F)c1nc(F)ccc1F [Compound 8g]	> 31.3	0.49 (≈ 1.72 µM)	0.49 (≈ 1.72 µM)	31.3 (≈ 110 µM)	15.6 (≈ 54.7 µM)	15.6 (≈ 54.7 µM)	0.49 (≈ 1.72 µM)							
O=C(NNc1cccc(F)c1)c1cnccn1 [Compound 9a]								15.6	0.98	0.12	0.98	3.9	7.8	0.49
O=C(NNc1cccc(Cl)c1)c1cnccn1 [Compound 9b]	> 31.3	0.98 (≈ 3.94 µM)	0.24 (≈ 0.965 µM)	0.98 (≈ 3.94 µM)	1.95 (≈ 7.84 µM)	3.9 (≈ 15.7 µM)	0.24 (≈ 0.965 µM)							
COc1cccc(NNC(=O)c2cnccn2)c1 [Compound 9c]	> 31.3	1.95 (≈ 7.98 µM)	0.49 (≈ 2.01 µM)	1.95 (≈ 7.98 µM)	1.95 (≈ 7.98 µM)	7.8 (≈ 31.9 µM)	0.49 (≈ 2.01 µM)							
O=C(NNc1ccc(F)cc1)c1cnccn1 [Compound 9d]	15.6 (≈ 67.2 µM)	0.49 (≈ 2.11 µM)	0.24 (≈ 1.03 µM)	1.95 (≈ 8.4 µM)	3.9 (≈ 16.8 µM)	3.9 (≈ 16.8 µM)	0.49 (≈ 2.11 µM)							
O=C(NNc1ccc(Cl)cc1)c1cnccn1 [Compound 9e]								>31.3	1.95	0.98	7.8	7.8	1.95	3.9
COc1ccc(NNC(=O)c2cnccn2)cc1 [Compound 9f]	> 31.3	0.98 (≈ 4.01 µM)	0.98 (≈ 4.01 µM)	> 31.3	3.9 (≈ 16 µM)	0.98 (≈ 4.01 µM)	0.98 (≈ 4.01 µM)							
O=C(NNc1ccc(F)cc1F)c1cnccn1 [Compound 9g]	7.8 (≈ 31.2 µM)	0.49 (≈ 1.96 µM)	0.24 (≈ 0.959 µM)	0.98 (≈ 3.92 µM)	3.9 (≈ 15.6 µM)	0.98 (≈ 3.92 µM)	0.24 (≈ 0.959 µM)							
O=C(NNc1cc(F)ccc1F)c1cnccn1 [Compound 9h]	> 31.3	1.95 (≈ 7.79 µM)	0.49 (≈ 1.96 µM)	1.95 (≈ 7.79 µM)	7.8 (≈ 31.2 µM)	15.6 (≈ 62.3 µM)	0.49 (≈ 1.96 µM)							
O=C(NNc1cc(F)cc(F)c1)c1cnccn1 [Compound 9i]	3.9 (≈ 15.6 µM)	1.95 (≈ 7.79 µM)	0.24 (≈ 0.959 µM)	1.95 (≈ 7.79 µM)	3.9 (≈ 15.6 µM)	7.8 (≈ 31.2 µM)	0.49 (≈ 1.96 µM)							
O=C(NNc1cc(Cl)cc(Cl)c1)c1cnccn1 [Compound 9j]	> 31.3	7.8 (≈ 27.6 µM)	0.49 (≈ 1.73 µM)	3.9 (≈ 13.8 µM)	3.9 (≈ 13.8 µM)	15.6 (≈ 55.1 µM)	0.98 (≈ 3.46 µM)							
